The record followed here is patent publication US11058652B2, “Methods for treatment of Prader-Willi syndrome” (Yissum Research Development Company of the Hebrew …, priority 2016, dated 2021).

This assay deals with Magel2-null mice. Nature of the assay: Effect of HU-671 on preventing bone loss in female Magel2 mice (μCT of distal femoral metaphysis). Format: in vivo. The conditions noted are these: 0.5 mg/kg IP daily for 6 weeks. The procedure:
The effect of HU-671 on preventing bone loss in female Magel2 mice and their littermates as controls was tested. Forty (40) 6-week old female mice were treated daily with HU-671 (0.5 mg/kg, IP) for a period of 6 weeks. Twenty-four (24) hours following the last administration of HU-671, a complete structural analysis of the trabecular and cortical bone in the distal femoral metaphysis was performed. The femora were fixed in phosphate buffered formalin for 48 hours and further kept at 70% ethanol. They were examined by a micro computed tomography (μCT) system. Scans were performed at 20-μm resolution in all three spatial dimensions. The mineralized tissues were differentially segmented by a global thresholding procedure.

On to `CCCCCCCC/C=C\CCCCCCCC(=O)NC(C)(CO)C(=O)O` (racemic) [HU-671, N-oleoyl α-methyl-DL-serine], for which the “Tb.N (trabecular number)” value is recorded as “increasing”, the “Tb.Th (trabecular thickness)” value was “enhancing”, the “bone volume density (BV/TV)” value is “stimulated increase” and the “connectivity density in the trabecular bone (Conn.D)” value was “significantly rescued”. Also, the cortical parameters result is given as “improved” and the “reduction in Cort.Th (cortical thickness)” value is recorded as “completely prevent”. Further, the trabecular bone loss result (vs vehicle-treated) is “completely prevented”.
